Laboratory results: US5220016A, “Synthesis of navelbine analogs” (priority 1991, dated 1993)
Values after ≈ are worked out from the molar mass of the structure shown. Read-outs that look alike come from different tables or passages of the source.

Columns and labels:
[1] = 72 hr cytotoxicity assay; in vitro antitumor activity; type: cell-based; conditions: for in vitro antitumor activity: in words, compared with vinblastine
Description: The 18'(S)-epimer was tested in vitro for antitumor activity in comparison with the 18'(R)-epimer and vinblastine. IC50 's were determined in a 72 hr cytotoxicity assay.

[2] = cited from earlier work
[3] = 72 hr cytotoxicity assay, in vitro, cell line not given, read-out: IC50
[4] = compared with vinblastine and vincristine (Fellous et al., 1989)

**Q.** Which IC50 [1, 3] does the source give for CC[C@]1(O)C[C@@H]2CN(CCc3c([nH]c4ccccc34)[C@@](C(=O)OC)(c3cc4c(cc3OC)N(C)[C@H]3[C@@](O)(C(=O)OC)[C@H](OC(C)=O)[C@]5(CC)C=CCN6CC[C@]43[C@@H]65)C2)C1 [Vinblastine] here?
**A.** 0.5 ng/mL (≈ 0.617 nM)

**Q.** Which results are given for CC[C@]12C=CCN3CC[C@@]4(c5cc([C@@]6(C(=O)OC)C[C@@H]7CCCN(Cc8c6[nH]c6ccccc86)C7)c(OC)cc5N(C)[C@H]4[C@@](O)(C(=O)OC)[C@@H]1OC(C)=O)[C@@H]32 [18'(S)-Dihydrodesethylnavelbine, (+)-18'S-4'-Desethyl-4'-deshydroxy-7'-norvinblastine]?
**A.** IC50 ([1]; 72 h): 0.5 ng/mL (≈ 0.664 nM); in vitro antitumor activity [1]: comparable to vinblastine

**Q.** Which IC50 [1, 3] does the source give for CCC1=C[C@@H]2CN(C1)Cc1c([nH]c3ccccc13)[C@@](C(=O)OC)(c1cc3c(cc1OC)N(C)[C@H]1[C@@](O)(C(=O)OC)[C@H](OC(C)=O)[C@]4(CC)C=CCN5CC[C@]31[C@@H]54)C2 [Navelbine] here?
**A.** 5 ng/mL (≈ 6.42 nM)

**Q.** What about the cytotoxicity ([2]; compared with Vinblastine) of the same molecule?
**A.** decreased cytotoxicity compared with Vinblastine

**Q.** What about the antitumor activity [2, 4] of the same molecule?
**A.** broader antitumor activity

**Q.** What about the “neurotoxicity and other side effects” value [2, 4] of the same molecule?
**A.** lower neurotoxicity and other side effects

**Q.** For CC[C@]12C=CCN3CC[C@@]4(c5cc([C@]6(C(=O)OC)C[C@@H]7CCCN(Cc8c6[nH]c6ccccc86)C7)c(OC)cc5N(C)[C@H]4[C@@](O)(C(=O)OC)[C@@H]1OC(C)=O)[C@@H]32 [18'(R)-Dihydrodesethylnavelbine, (+)-18'R-4'-Desethyl-4'-deshydroxy-7'-norvinblastine], which IC50 ([1]; 72 hr cytotoxicity assay, in vitro, cell line not given) is on record?
**A.** no activity

**Q.** What about the “in vitro antitumor activity” value [1] of the same molecule?
**A.** inactive
